Measurements reported in paper PMC12163085, “Targeting transcription factors through an IMiD independent zinc finger domain” (EMBO Molecular Medicine, 2025).

Columns and labels:
[1] = tested on: T1, SNU387-Ev (SNU387 transduced with empty vector); assay: cells; design: species or system SNU398 and SNU387 isogenic lines; CellTiter-Glo luminescence viability dose response in 384-well plates, nonlinear regression; settings: Homo sapiens, SNU-387; 72 h cell viability; read-out: EC50 / SNU387-EvLo
T1 construct: empty vector FUW-Luc-mCh-puro
Method: (§1) Empty vector, SALL4A, and SALL4B expressing isogenic cell lines were generated by transducing the SALL4 negative hepatocellular carcinoma SNU-387 cells with empty vector, SALL4A, or SALL4B FUW-Luc-mCh-puro lentiviral constructs. Cells were plated in 50 μl of RPMI culture media in 384-well white flat-bottom plates (Corning) and incubated at 37 °C in a humidified atmosphere of 5% CO2 overnight. Cell numbers per well were 1500 for SNU-398, and 750 for SNU-387 and SNU-387 isogenic lines. After overnight incubation, varying concentrations of compounds 1–80 were added to cells with multichannel electronic pipettes (Rainin). Cells were then incubated for 72 h at 37 °C in a humidified atmosphere of 5% CO2 before 10 μl of CellTiter-Glo reagent was added to the wells with the MultiFlo Microplate Dispenser (BioTek). Cells were incubated at room temperature for a minimum of 10 min, after which luminescence readings were recorded by an Infinite M1000 Microplate Reader (Tecan). Each data point was performed in n = 3 independent cell cultures. IC50 of compounds were determined using nonlinear regression fitting from Prism (GraphPad). Cell-based screening was next employed to evaluate the growth inhibitory activity of the test compounds against SALL4 expressing malignant cells. SNU398, a liver cancer cell line with high endogenous levels of SALL4, and SNU387, a liver cancer cell line with undetectable levels of SALL4, were used for comparison. Cells were incubated with the test compound at 1 μM for 72 h, after which cell viability was assessed. […] Next, we carried out dose escalation studies on all SH compounds to deduce their EC50 values on SNU387 and SNU398. In order to interrogate the effects of compounds targeting SALL4, we created isogenic cells by overexpressing SALL4A (SNU387-TgSALL4A) or SALL4B (SNU387-TgSALL4B) in SNU387 cells (Tan et al, [2019]) (Fig. 2B, and Dataset EV4). The EC50 of SH2, SH6, and SH7 in SALL4 high SNU398 cells were 0.4 μM, 0.5 μM, and 0.3 μM, respectively. In contrast, the EC50 values of the same compounds were more than 10 μM on SALL4 low SNU387 cells.

SNU387-TgSALL4A = tested on: T2, SNU387-TgSALL4A; assay: cells; design: species or system SNU398 and SNU387 isogenic lines; CellTiter-Glo luminescence viability dose response in 384-well plates, nonlinear regression; settings: 72 h cell viability; read-out: EC50 / SNU387-TgSALL4AAHi
T2 construct: SNU387 overexpressing SALL4A (FUW-Luc-mCh-puro)
Method: as §1

SNU387-TgSALL4B = tested on: T3, SNU387-TgSALL4B; assay: cells; design: species or system SNU398 and SNU387 isogenic lines; CellTiter-Glo luminescence viability dose response in 384-well plates, nonlinear regression; settings: 72 h cell viability; read-out: EC50 / SNU387-TgSALL4BBHi
T3 construct: SNU387 overexpressing SALL4B (FUW-Luc-mCh-puro)
Method: as §1

SNU387 = assay: cells; design: species or system SNU398 and SNU387 isogenic lines; CellTiter-Glo luminescence viability dose response in 384-well plates, nonlinear regression; settings: Homo sapiens, SNU-387; 72 h cell viability; read-out: EC50 / SNU387Lo
Method: as §1

SNU398 = assay: cells; design: species or system SNU387, SNU398 and SNU387 isogenic lines; CellTiter-Glo luminescence viability dose response in 384-well plates, nonlinear regression; settings: Homo sapiens, SNU-398; 72 h cell viability; read-out: EC50 / SNU398Hi
Method: as §1

CRBN (cereblon) = molecular target: T4, CRBN (cereblon) (Homo sapiens, UniProt Q96SW2); assay: in-cell CETSA only ([…] SH6); assay type: cell-based
T4 construct: endogenous CRBN in SNU398 cells
T4 sequence (Q96SW2 whole entry): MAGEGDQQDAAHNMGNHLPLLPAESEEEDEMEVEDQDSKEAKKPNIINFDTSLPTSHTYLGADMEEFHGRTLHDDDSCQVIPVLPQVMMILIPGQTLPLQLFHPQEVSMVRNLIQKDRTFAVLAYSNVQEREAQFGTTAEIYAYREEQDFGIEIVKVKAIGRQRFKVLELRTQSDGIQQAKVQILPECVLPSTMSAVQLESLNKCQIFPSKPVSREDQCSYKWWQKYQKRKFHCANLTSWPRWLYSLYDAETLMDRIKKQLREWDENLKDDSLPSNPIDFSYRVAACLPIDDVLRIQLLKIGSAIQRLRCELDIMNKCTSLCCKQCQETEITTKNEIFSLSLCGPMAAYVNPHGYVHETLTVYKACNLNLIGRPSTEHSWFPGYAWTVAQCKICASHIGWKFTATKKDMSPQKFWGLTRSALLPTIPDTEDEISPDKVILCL

hERG potassium channel = molecular target: T5, hERG potassium channel (Homo sapiens, UniProt Q12809); assay: hERG channel block concentration-response; assay type: cell-based
T5 construct: gene KCNH2
T5 sequence (Q12809 whole entry): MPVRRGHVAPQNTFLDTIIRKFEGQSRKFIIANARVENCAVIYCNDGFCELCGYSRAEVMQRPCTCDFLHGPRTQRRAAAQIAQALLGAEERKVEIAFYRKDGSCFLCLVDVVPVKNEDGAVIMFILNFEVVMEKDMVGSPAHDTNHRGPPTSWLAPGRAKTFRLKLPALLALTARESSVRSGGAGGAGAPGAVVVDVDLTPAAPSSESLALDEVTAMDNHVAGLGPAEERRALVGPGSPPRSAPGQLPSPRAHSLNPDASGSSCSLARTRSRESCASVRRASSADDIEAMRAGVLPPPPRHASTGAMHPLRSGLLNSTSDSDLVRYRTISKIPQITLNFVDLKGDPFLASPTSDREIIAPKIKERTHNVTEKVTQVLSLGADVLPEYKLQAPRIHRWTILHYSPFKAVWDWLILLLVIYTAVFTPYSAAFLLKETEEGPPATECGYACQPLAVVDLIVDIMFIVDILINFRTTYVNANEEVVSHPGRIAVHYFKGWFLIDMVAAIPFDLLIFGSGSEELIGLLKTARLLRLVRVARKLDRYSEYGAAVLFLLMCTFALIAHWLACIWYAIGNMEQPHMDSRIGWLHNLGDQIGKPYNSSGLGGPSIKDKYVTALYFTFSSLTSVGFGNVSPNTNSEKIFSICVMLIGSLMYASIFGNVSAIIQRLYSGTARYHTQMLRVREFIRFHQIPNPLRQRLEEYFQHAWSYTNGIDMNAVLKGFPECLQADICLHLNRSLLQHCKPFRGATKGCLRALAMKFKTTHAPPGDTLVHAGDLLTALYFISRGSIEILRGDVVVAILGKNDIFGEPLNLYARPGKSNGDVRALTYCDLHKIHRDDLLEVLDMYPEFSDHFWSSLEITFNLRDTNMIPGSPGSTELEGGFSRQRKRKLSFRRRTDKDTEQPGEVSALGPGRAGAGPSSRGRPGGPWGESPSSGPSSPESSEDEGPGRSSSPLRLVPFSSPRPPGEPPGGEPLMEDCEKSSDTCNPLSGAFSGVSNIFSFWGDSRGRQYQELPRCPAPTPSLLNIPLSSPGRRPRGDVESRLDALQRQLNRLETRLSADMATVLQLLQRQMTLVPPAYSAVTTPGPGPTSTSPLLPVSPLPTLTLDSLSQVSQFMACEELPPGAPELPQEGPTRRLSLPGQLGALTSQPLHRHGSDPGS

CUL4A = molecular target: T6, CUL4A (Homo sapiens, UniProt Q13619); assay: SPR (Biacore, immobilized CUL4A); supported by in-cell CETSA; assay type: binding
T6 construct: Recombinant CUL4A (Creative Biomart CUL4A-690H)
T6 sequence (Q13619 whole entry): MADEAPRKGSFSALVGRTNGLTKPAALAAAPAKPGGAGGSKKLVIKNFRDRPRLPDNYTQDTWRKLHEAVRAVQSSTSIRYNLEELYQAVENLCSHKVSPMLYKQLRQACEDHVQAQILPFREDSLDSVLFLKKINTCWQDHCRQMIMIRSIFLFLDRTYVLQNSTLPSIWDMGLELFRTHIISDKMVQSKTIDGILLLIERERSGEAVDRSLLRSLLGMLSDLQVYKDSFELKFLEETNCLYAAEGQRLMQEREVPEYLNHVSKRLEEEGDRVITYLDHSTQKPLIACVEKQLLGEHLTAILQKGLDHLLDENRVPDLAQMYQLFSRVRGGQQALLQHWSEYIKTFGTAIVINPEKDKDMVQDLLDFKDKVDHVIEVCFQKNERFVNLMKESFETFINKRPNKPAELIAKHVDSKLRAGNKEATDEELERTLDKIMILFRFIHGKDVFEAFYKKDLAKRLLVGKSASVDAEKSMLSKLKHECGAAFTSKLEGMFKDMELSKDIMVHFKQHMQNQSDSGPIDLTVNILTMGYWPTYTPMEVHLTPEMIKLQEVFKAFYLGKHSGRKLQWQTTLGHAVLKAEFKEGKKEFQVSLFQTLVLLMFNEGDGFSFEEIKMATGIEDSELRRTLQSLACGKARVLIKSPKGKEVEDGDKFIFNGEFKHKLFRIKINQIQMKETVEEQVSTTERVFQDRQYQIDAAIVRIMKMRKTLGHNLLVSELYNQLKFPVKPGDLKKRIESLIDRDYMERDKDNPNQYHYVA

SNU387-EvLo = tested on: T7, SNU387-EvLo; assay: cells; design: species or system SNU-387, SNU-398 and SNU-387 isogenic lines; CellTiter-Glo luminescence cell viability, dose-response EC50; settings: 72 h
T7 construct: SNU-387 empty vector control
Method: as §1

SNU387-TgSALL4AAHi = tested on: T8, SNU387-TgSALL4AAHi; assay: cells; design: species or system SNU-387, SNU-398 and SNU-387 isogenic lines; CellTiter-Glo luminescence cell viability, dose-response EC50; settings: 72 h
T8 construct: SNU-387 overexpressing SALL4A
Method: as §1

SNU387-TgSALL4BBHi = tested on: T9, SNU387-TgSALL4BBHi; assay: cells; design: species or system SNU-387, SNU-398 and SNU-387 isogenic lines; CellTiter-Glo luminescence cell viability, dose-response EC50; settings: 72 h
T9 construct: SNU-387 overexpressing SALL4B
Method: as §1

SNU387Lo = tested on: T10, SNU387Lo; assay: cells; design: species or system SNU-387, SNU-398 and SNU-387 isogenic lines; CellTiter-Glo luminescence cell viability, dose-response EC50; settings: 72 h
T10 construct: SNU-387 hepatocellular carcinoma, SALL4 low
Method: as §1

SNU398Hi = tested on: T11, SNU398Hi; assay: cells; design: species or system SNU-387, SNU-398 and SNU-387 isogenic lines; CellTiter-Glo luminescence cell viability, dose-response EC50; settings: 72 h
T11 construct: SNU-398 hepatocellular carcinoma, SALL4 high
Method: as §1

SALL4 ZFC4 = molecular target: T12, SALL4 ZFC4 (human, UniProt Q9UJQ4); assay: X-ray crystallography (2.1 A); Zn2+; 500 uM protein with 750 uM DNA; Crystallization: protein in 20 mM HEPES pH 7.5, 200 mM NaCl, 0.5 mM TCEP, 1 mM DTT, 10 uM ZnCl2; mixed with equal volume of 30% PEG3350, 0.04 M NH4SO4, BisTris; settings: protein: recombinant; tags: N-terminal GST, removed with thrombin (pGEX4T1); chain copies: 2; blunt
T12 sequence: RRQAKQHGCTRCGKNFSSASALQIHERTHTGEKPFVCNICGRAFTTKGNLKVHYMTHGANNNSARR

For `COc1ccc(N)c(NC(=O)/C=C/c2cccnc2Nc2cc(OC)c(OC)c(OC)c2)c1` [SH2], which EC50 [1] is on record?
Its EC50 is greater than 10 µM.

What about the EC50 (SNU387-TgSALL4A) of the same molecule?
The EC50 was 1300 nM.

What about the EC50 (SNU387-TgSALL4B) of the same molecule?
The EC50 was 400 nM.

And the EC50 (SNU387)?
Its EC50 is greater than 30 µM.

And the EC50 (SNU398)?
Its EC50 is 0.4 µM.

With `COc1cc(Nc2ncccc2/C=C/C(=O)Nc2ccc(Cl)cc2N)cc(OC)c1OC` [SH6, (2E)-N-(2-amino-4-chlorophenyl)-3-[2-(3,4,5-trimethoxyanilino)pyridin-3-yl] prop-2-enamide] as the molecule, how does the “in-cell CETSA only (50 μM SH6)” value (CRBN (cereblon)) read?
Its value is “higher thermal stability (less unfolding) of CUL4, CRBN, and SALL4 (Fig. 3F), implicating these proteins as binding partners of SH6”.

What about the IC50 (hERG potassium channel) of the same molecule?
Its IC50 is 22.2 µM.

And the Kd (CUL4A)?
Its Kd is roughly 89 µM.

Which results are given for `COc1cc(Nc2ncccc2/C=C/C(=O)Nc2cc(Cl)c(Cl)cc2N)cc(OC)c1OC` [SH7]?
EC50 [1]: > 10 µM; EC50 (SNU387-TgSALL4A): 1000 nM; EC50 (SNU387-TgSALL4B): 300 nM; EC50 (SNU387): ~30 µM; EC50 (SNU398): 0.3 µM

How did the EC50 (SNU387-EvLo) turn out when `Nc1ccc(F)cc1NC(=O)c1cccnc1Nc1ccc(F)cc1` [SH61] was run?
The EC50 was greater than 10 µM.

And the EC50 (SNU387-TgSALL4AAHi)?
The EC50 was greater than 10 µM.

And the EC50 (SNU387-TgSALL4BBHi)?
Its EC50 is greater than 10 µM.

What about the EC50 (SNU387Lo) of the same molecule?
Its EC50 is greater than 30 µM.

And the EC50 (SNU398Hi)?
Its EC50 is greater than 30 µM.

`Cc1cc(N)c(NC(=O)c2cccnc2Nc2ccc(Cl)cc2)cc1C` [SH76] was tested. Which EC50 (SNU387) did it give?
Its EC50 is greater than 30 µM.

What about the EC50 (SNU398) of the same molecule?
Its EC50 is roughly 30 µM.

Which EC50 (SNU387) does the source give for `Nc1ccc(F)cc1NC(=O)c1cccnc1Nc1ccc(Cl)cc1` [SH77] here?
Its EC50 is greater than 30 µM.

And the EC50 (SNU398)?
Its EC50 is roughly 25 µM.

How did the EC50 (SNU387) turn out when `Nc1ccc(Cl)cc1NC(=O)c1cccnc1Nc1ccc(Cl)cc1` [SH78] was run?
The EC50 was greater than 30 µM.

And the EC50 (SNU398)?
The EC50 was roughly 25 µM.

Which EC50 (SNU387) does the source give for `Nc1cc(Cl)c(Cl)cc1NC(=O)c1cccnc1Nc1ccc(Cl)cc1` [SH79] here?
The EC50 was greater than 30 µM.

What about the EC50 (SNU398) of the same molecule?
The EC50 was roughly 20 µM.

What does the source list for `O=C(NO)c1cccnc1Nc1ccc(Cl)cc1` [SH80]?
EC50 (SNU387): > 30 µM; EC50 (SNU398): > 30 µM

B1: 12-mer TATTA SALL4 motif duplex (dsDNA)
DNA 1: CGAAATATTAGC
DNA 2: GCTAATATTTCG
Does B1 bind (SALL4 ZFC4)?
Result: binds
